Results as given in patent US11149033B2, “Heteroaryl compound, enantiomer, diastereomer or pharmaceutically acceptable salt thereof, and antiviral composition containing same as active ingredient” (priority 2016, dated 2021).
Like-named read-outs stand apart in the source and are kept apart here.

Key:
[1] = system: B/Florida/04/2006; assay: Antiviral activity (drug efficacy evaluation by concentration) against B/Florida/04/2006; format: cell-based, B type influenza virus
[2] = system: A/California/07/2009 (H1N1); assay: Antiviral activity (drug efficacy evaluation by concentration) against A/California/07/2009 (H1N1); format: cell-based, A type influenza virus; settings: Influenza A virus
[3] = in vitro
[4] = system: A/Perth/16/2009 (H3N2); assay: Antiviral activity (drug efficacy evaluation by concentration) against A/Perth/16/2009 (H3N2); format: cell-based, A type influenza virus; settings: Influenza A virus
[5] = CC50, third EC50/CC50 column pair (c7), beside the EC50 of c6
[6] = read-out: EC50 B/Florida/04/2006, B/Florida/04/2006
[7] = H1N1, A/California/07/2009 (H1N1), read-out: EC50 A/California/07/2009 (H1N1)
[8] = CC50 B/Florida/04/2006, cytotoxicity in the B/Florida/04/2006 assay
[9] = H3N2, A/Perth/16/2009 (H3N2), read-out: EC50 A/Perth/16/2009 (H3N2)

SMILES | melting point [°C] | EC50 [1] [µM] | EC50 ([2]; H1N1, read-out: EC50) [µM] | CC50 ([3]; CC50, beside the EC50 of c2) [µM] | CC50 ([3]; CC50, beside the EC50 of c4) [µM] | CC50 [3, 5] [µM] | EC50 ([4]; H3N2, read-out: EC50) [µM] | EC50 [1, 6] [µM] | EC50 [2, 7] [µM] | CC50 [3, 8] [µM] | EC50 [4, 9] [µM]
Cc1cccc(C)c1Nc1nnc(CCc2ccccc2C(C)C)o1 [Compound 85, N-(2,6-dimethylphenyl)-5-(2-isopropylphenethyl)-1,3,4-oxadiazol-2-amine] | 234.1 | > 50 | > 50 | > 50 | > 50 | > 50 | > 50 | – | – | – | –
CC(C)c1ccccc1/C=C/c1nnc(Cc2cccc3ccccc23)o1 [Compound 132, 2-(2-isopropylstyryl)-5-(naphthalen-1-ylmethyl)-1,3,4-oxadiazole] | 148.1 | 1.58 | 1.52 | 10.8 | 12.2 | 13.6 | 1.14 | – | – | – | –
Cc1cc(C(F)(F)F)ccc1/C=C/c1nnc(Cc2cccc(Br)c2)o1 [Compound 198, 2-(3-bromobenzyl)-5-(2-methyl-4-(trifluoromethyl)styryl)-1,3,4-oxadiazole] | 116 | 47.9 | 35.7 | > 50 | > 50 | > 50 | > 50 | – | – | – | –
CC(C)c1ccccc1/C=C/c1nnc(Cc2ccc(Br)cc2F)o1 [Compound 169, 2-(4-bromo-2-fluorobenzyl)-5-(2-isopropylstyryl)-1,3,4-oxadiazole] | 71.9 | 3.08 | 2.13 | 20.3 | > 50 | 37.2 | 2.22 | – | – | – | –
CC(=O)c1ccccc1CSc1nnc(Cn2nc(C)c(Br)c2C)o1 [Compound 28, 1-(2-(((5-((4-bromo-3,5-dimethyl-1H-pyrazol-1-yl)methyl)-1,3,4-oxadiazol-2-yl)thio)methyl)phenyl)ethan-1-one] | 63.7 | – | – | – | – | – | – | > 50 | > 50 | > 50 | > 50
O=C(c1ccccc1)c1nnc(Cc2ccc(Br)cc2)o1 [Compound 64, (5-(4-bromobenzyl)-1,3,4-oxadiazol-2-yl)(phenyl)methanone] | 139.9 | – | – | – | – | – | – | 40.5 | 5.97 | > 50 | > 50
Fc1ccc(/C=C/c2nnc(Cc3ccc(Cl)nc3)o2)c(Cl)c1 [Compound 180, (E)-2-(2-chloro-4-fluorostyryl)-5-((6-chloropyridin-3-yl)methyl)-1,3,4-oxadiazole] | 163 | 0.98 | 1.05 | > 50 | > 50 | > 50 | 0.51 | – | – | – | –
Cc1ccc(F)c(Cc2nnc(/C=C/c3ccc(F)cc3Cl)o2)c1 [Compound 177, (E)-2-(2-chloro-4-fluorostyryl)-5-(2-fluoro-5-methylbenzyl)-1,3,4-oxadiazole] | 136.9 | 1.07 | 0.835 | > 50 | > 50 | > 50 | 0.753 | – | – | – | –
Brc1ccc(Cc2nnc(/C=C/c3ccccc3)o2)cc1 [Compound 165, 2-(4-bromobenzyl)-5-styryl-1,3,4-oxadiazole] | 110.6 | 2.84 | 1.95 | 12.6 | 13.5 | 10.1 | 3.76 | – | – | – | –
Brc1ccc(Cc2nnc(/C=C/c3ccccc3-c3ccccc3)o2)cc1 [Compound 126, (E)-2-(2-([1,1′-biphenyl]-2-yl)vinyl)-5-(4-bromobenzyl)-1,3,4-oxadiazole] | 87.4 | > 50 | 45.7 | > 50 | > 50 | > 50 | > 50 | – | – | – | –
Clc1ccc(/C=C/c2nnc(Cc3ccc(Br)cc3)o2)cc1 [Compound 171, 2-(4-bromobenzyl)-5-(4-chlorostyryl)-1,3,4-oxadiazole] | 129 | 4.3 | 3.74 | > 50 | 49.5 | 36.2 | 3.63 | – | – | – | –
CC(C)c1cccc(/C=C/c2nnc(Cc3ccc(Br)cc3)o2)c1 [Compound 151, 2-(4-bromobenzyl)-5-(3-isopropylstyryl)-1,3,4-oxadiazole] | 61.8 | 6.39 | 21.3 | > 50 | > 50 | > 50 | 6.38 | – | – | – | –
FC(F)(F)c1ccc(Cl)c(/C=C/c2nnc(Cc3cccc(Br)c3)o2)c1 [Compound 199, 2-(3-bromobenzyl)-5-(2-chloro-5-(trifluoromethyl)styryl)-1,3,4-oxadiazole] | 106.9 | 9.89 | 8.55 | > 50 | > 50 | > 50 | 6.3 | – | – | – | –
Cc1ccccc1CSc1ccc(C(=O)n2nc(C)c(Br)c2C)o1 [Compound 48, (4-bromo-3,5-dimethyl-1H-pyrazol-1-yl)(5-((2-methylbenzyl)thio)furan-2-yl)methanone] | 101.2 | – | – | – | – | – | – | 23.4 | 4.88 | 9.54 | 11.3
Fc1ccc(/C=C/c2nnc(Nc3ccc(Br)cc3)o2)c(Cl)c1 [Compound 87, (E)-N-(4-bromophenyl)-5-(2-chloro-4-fluorostyryl)-1,3,4-oxadiazol-2-amine] | 218.7 | 2.52 | 2.74 | > 50 | > 50 | > 50 | 1.97 | – | – | – | –
COc1ccccc1/C=C/c1nnc(Nc2ccc(Br)cc2)o1 [Compound 120, (E)-N-(4-bromophenyl)-5-(2-methoxystyryl)-1,3,4-oxadiazol-2-amine] | 232.4 | 17.4 | 23.1 | > 50 | > 50 | – | 18.1 | – | – | – | –
Brc1ccc(-c2nnc(SCc3ccccc3-c3ccccc3)o2)cc1 [Compound 42, 2-(([1,1′-biphenyl]-2-ylmethyl)thio)-5-(4-bromophenyl)-1,3,4-oxadiazole] | 120.5 | – | – | – | – | – | – | 2.92 | 1.62 | 14.8 | 2.33
Cc1ccc(-c2ccccc2CSc2nnc(Cn3nc(C)c(Br)c3C)o2)cc1 [Compound 32, 2-((4-bromo-3,5-dimethyl-1H-pyrazol-1-yl)methyl)-5-(((4′-methyl-[1,1′-biphenyl]-2-yl)methyl)thio)-1,3,4-oxadiazole] | 102.3 | – | – | – | – | – | – | 1.38 | 0.6 | 7.32 | 0.5
Fc1ccc(Cl)c(/C=C/c2nnc(Cc3cccc(Br)c3)o2)c1 [Compound 193, 2-(3-bromobenzyl)-5-(2-chloro-5-fluorostyryl)-1,3,4-oxadiazole] | 97.1 | > 50 | > 50 | > 50 | > 50 | > 50 | > 50 | – | – | – | –
Brc1ccc(Cc2noc(/C=C/c3ccccc3)n2)cc1 [Compound 174, (E)-3-(4-bromobenzyl)-5-styryl-1,2,4-oxadiazole] | 86.7 | 1.45 | 3.78 | 6.53 | 5.46 | 6.3 | 1.54 | – | – | – | –
Fc1ccc(/C=C/c2nnc(Cc3cccc(Br)c3)o2)cc1 [Compound 188, 2-(3-bromobenzyl)-5-(4-fluorostyryl)-1,3,4-oxadiazole] | 95.3 | 12.2 | 9.58 | > 50 | > 50 | > 50 | 11.6 | – | – | – | –
